The values that follow come from US20230340061A1, “PEPTIDES AND METHODS FOR THE TREATMENT OF MULTIPLE SCLEROSIS” (IMCYSE SA, priority 2020, published 2023).

Experiment [1] deals with CD4+ T cells of patients with multiple sclerosis. Put plainly: Generation of antigen specific CD4+ T cells, CD154 (CD40L) expression by flow cytometry. It is filed as cell-based, human. As to conditions: for specific induction of effector cells (CD3+CD4+CD154+): overnight co-culture. The protocol:
PBMCs were isolated from blood samples of patients with multiple sclerosis treated by dimethyl fumarate (DMF) on Lymphoprep density gradients.
(§1) CD14+ monocytes were isolated from these PBMCs by performing positive immunomagnetic separation with CD14 microbeads (Miltenyi Biotec, 130-050-201) according to the supplier recommendations. CD14+ monocytes were cultured for six days and maturated to generate autologous dendritic cells (mDC). CD19+ B cells were isolated from the CD14- PBMCs fraction by performing positive immunomagnetic separation with CD19 microbeads (Miltenyi Biotec, 130-050-301) according to the supplier recommendations. CD19+ B cells were cultured and immortalized with EBV to generate autologous lymphoblastoid cell lines (LCL).
(§2) Naïve CD4+ T cells were also purified from the CD14- PBMCs fraction by performing negative immunomagnetic separation with naïve CD4+ T cell isolation kit (Miltenyi Biotec, 130-094-131) according to the supplier recommendations. Naïve CD4+ T cells were co-cultured with autologous mDC or LCL in the presence of P2 and P4 peptides. The CD4+ T cells were re-stimulated periodically, about every 10-12 days.
(§3) The ability of the peptides to generate antigen specific CD4+ T cells was evaluated by flow cytometry analysis of the TCR induced surface activation marker CD154 (CD40L) expression after overnight co-culture at resting state with autologous LCL without (no peptide) or with the peptides (P2 or P4). The surface expression of the lytic marker Fas ligand (CD178) was also evaluated by flow cytometry analysis after overnight co-culture at resting state with autologous LCL without (no peptide) or with the peptide (P4).
(In flow cytometry, cells or beads pass a laser one at a time.)

Experiment [2] has the same test system. Kind of experiment: Surface expression of lytic marker Fas ligand (CD178) by flow cytometry. Conditions: CD4+ cell lines of patients MS017 (S9) and MS020 (S10). The format is cell-based, human. On the procedure: as §2, §3
Another experiment relates to autologous LCL. Put plainly: Cytolytic activity: apoptosis of autologous LCL (Annexin V). It is filed as cell-based, human. As to conditions: peptide-loaded labelled autologous LCL co-cultured with P4-specific CD4+ T cell lines from patients MS017 (S7), MS026 (S12), MS028 (S11) and MS029 (S9). The protocol: as §1
The cytolytic activity of the antigen specific CD4+ T cells was evaluated by quantifying the apoptosis induced on LCL used as antigen presenting cells. Fluorescently labelled autologous LCL, loaded or not with the peptide (P4), were overnight co-cultured at resting state with specific CD4+ T cells, and LCL apoptosis was quantified by flow cytometry through Annexin V staining. Considering the apoptosis percentage of unloaded LCL, used as control, the percentage of specific apoptosis was calculated as follows

For experiment [3], the system named is Experimental Auto-Immune Encephalomyelitis (EAE). Put plainly: Therapeutic administration in MOG35-55-induced EAE. It is filed as in vivo. Conditions: 30 μg s.c. with alum, days 4, 9, 14, 19, vs Saline group. The protocol:
The study used a total of 48 female C57BL/6 mice (Taconic Biosciences, 9 weeks old on Day 0). Mice were acclimated for 7 days prior to the first injection. Mice were assigned to groups in a balanced manner to achieve similar average weight across the groups at the start of the study.
Dosing of all mice was performed once on each of the days indicated in Table 2, s.c., at a volume of 0.05 mL/site, each mouse receiving injection at two sites, for a total of 0.1 mL/mouse/dosing day. IMCY-0189 or P4 peptide total dose was 30 μg per administration.
Lyophilized immunogenic peptide IMCY-0189 with the sequence […] (SEQ ID NO: 260), comprising an oxidoreductase motif HCPYC (SEQ ID NO: 24), a linker GW, a murine Myelin Oligodendrocyte Glycoprotein (MOG35-55) MHCII T cell epitope […] (SEQ ID NO: 261) and a flanking sequence HLYR (SEQ ID NO: 262) (Smart Bioscience) was solubilized immediately before use. Lyophilized IMCY-0189 was thawed at room temperature for 10 minutes, resuspended in Na Acetate buffer 50 mM NaCl 0.9% pH 5.4 and incubated at room temperature for 10 minutes. Reconstituted peptide was then mixed with Imject™ Alum Adjuvant before injection.
Lyophilized immunogenic peptide P4 with the sequence […] (SEQ ID NO: 27), comprising an oxidoreductase motif KHCPYC (SEQ ID NO: 50), a linker VRY, a human Myelin Oligodendrocyte Glycoprotein (MOG201-212) MHCII T cell epitope […] (SEQ ID NO: 2) and a flanking sequence TLFKK (SEQ ID NO: 263) (Smart Bioscience) was solubilized immediately before use. Lyophilized P4 was thawed at room temperature for 10 minutes, resuspended in Na Acetate buffer 50 mM NaCl 0.9% pH 5.4 and incubated at room temperature for 10 minutes. Reconstituted peptide was then mixed with Imject™ Alum Adjuvant before injection.
EAE was induced in all mice as follows: • Day 0, Hour 0—Immunization with a peptide corresponding to the amino acids 35-55 of MOG (MOG35-55)/CFA • Day 0, Hour 2—Injection of pertussis toxin • Day 1, Hour 0—2nd injection of pertussis toxin (24 hours after initial immunization).
Mice were injected subcutaneously at two sites in the back with the emulsion component (containing MOG35-55) of Hooke Kit™ MOG35-55/CFA Emulsion PTX, catalog number EK-2110 (lot #131, Hooke Laboratories, Lawrence MA). One site of injection was in the area of upper back, approximately 1 cm caudal of the neck line. The second site was in the area of lower back, approximately 2 cm cranial of the base of the tail. The injection volume was 0.1 mL at each site. Each mouse received 200 μg of MOG35-55.
Within 2 hours of the injection of emulsion, and then again 24 hours after the injection of emulsion, the pertussis toxin component of the kit was administered intraperitoneally. The pertussis toxin (lot #1008, Hooke Laboratories) was administered at 90 ng/dose for both injections and the volume of each injection was 0.1 mL.
Animals were scored daily starting from Day 7 to the end of the study. Scoring was performed blind, by a person unaware of both treatment and of previous scores for each mouse. In-between scores were assigned when the clinical signs fell between two above defined scores.
On Day 28, blood was collected from all mice into gel clot activator tubes and allowed to clot at room temperature for ˜30 minutes. Blood is then centrifuged at ˜10000 g for 5 minutes. Serum was transferred into Eppendorf tubes and stored at −80° C. until shipment to Quanterix™. Serum Neurofilament light (NF-L) protein levels were quantified using Simoa® NF-light Advantage kit, a digital immunoassay for the quantitative determination of NF-L in serum, plasma and CSF. The used antibodies (Uman Diagnostics, Umea Sweden) also cross react with murine, bovine and macaque NF-L epitopes and as such, this assay can be used for research with these species. All samples were tested in duplicate at a dilution factor of 40×. […]

The test system of experiment [4] is CD4+ T cells of patients with multiple sclerosis. Put plainly: Cytokine secretion in CD4+ T cell culture supernatants (LEGENDplex Human Th Panel). It is filed as cell-based.
Excerpt: as §2
The ability of the peptides to induce cytokines secretion in CD4+ T cells culture supernatants was evaluated by flow cytometry analysis after overnight co-culture at resting state with autologous mDC without (no peptide) or with the peptides (P2 or P4). Supernatants were analyzed with the LEGENDplex Human Th Panel (13-plex) (BioLegend, 740721) according to the supplier recommendations.

Turning to KHCPYCVRYFLRVPSWKITLFKK [P4], the “specific induction of effector cells (CD3+CD4+CD154+)” value in experiment [1] (P4-specific CD4+ cell lines of patients MS017 (S14) and MS026 (S13)) is on record as “specific induction”. The “specific induction of effector cells (CD3+CD4+CD154+)” value in experiment [1] (P4-specific CD4+ cell lines of patients MS024 (S20), MS017 (S9), MS026 (S13), MS028 (S11) and MS029 (S9)) is reported as “specific induction”. Also, the “generation of peptide-specific CD4+ T cell lines from MS patients” value in experiment [1] (naive CD4+ T cells co-cultured with autologous mDC or LCL in presence of peptide) was “able to generate P4-specific CD4+ T cell lines from eight different MS patients”. Also, in experiment [1] (patients' CD4+ cell lines, overnight co-culture with autologous LCL with peptide vs no peptide), the “frequency of effector cells (CD3+CD4+CD154+)” value is recorded as “high frequency”. Also, the “effector cells expressing the lytic marker Fas ligand (CD3+CD4+CD154+FasL+)” value in experiment [2] is on record as “specific increase”. For the same sequence, the “percentage of specific LCL apoptosis” value with autologous LCL is recorded as “increase”. In addition, in experiment [3], the “AUC (area under the curve) of EAE scores” value is “statistically significant reduced”, the “MMS (mean maximal score)” value is “statistically significant reduced”, the disease onset entry is reported as “postponed” and the “level of demyelination (anti-MBP stained spinal cord sections)” value was “reduced level”. In addition, the “level of inflammation (inflammatory foci, H&E stained spinal cord sections)” value in experiment [3] was “reduced level”. In addition, the “serum NF-L levels” value in experiment [3] (Day 28) is reported as “statistically significant reduced”. In addition, in experiment [3] (EAE score 0-5), the end score entry is listed as “reduced”. Further, the “specific secretion of cytokine (IL-5)” value in experiment [4] (culture supernatant of MS017 (S12) and MS024 (S20) CD4+ cell lines, P4 vs S-WT epitope peptide) is “specific secretion”. Further, the “specific secretion of cytokine (IL-5)” value in experiment [4] (culture supernatant of MS017 (S15) CD4+ cell line, P4 vs C-WT epitope peptides) is given as “specific secretion”. Further, the “specific secretion of cytokine (IL-5)” value in experiment [4] (culture supernatant of MS017 (S15), MS024 (S20) and MS026 (S14) CD4+ cell lines) is “specific secretion”.
